pIC50: −log10 of the molar value.
What was measured:
[1] = tested on: HTT; experiment: HiBiT protein abundance assay, HTT; assay type: cell-based, human; conditions: Homo sapiens, K562, 24 h, modified K562 cells
Procedure, shortened: (§1)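 HiBiT knock-in K562, 10000 cells/well, 24 h cpd at 37 °C/5% CO2; 10-pt 3-fold series from 10 μM final; DMSO ≤0.25%. Lytic detection, luminescence read. 4PL fit → IC50 vs DMSO control; unmodified K562 = baseline.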

[2] = tested on: MYB; experiment: HiBiT protein abundance assay, MYB; assay type: cell-based, human; conditions: modified K562 cells
Procedure, shortened: as §1

[3] = Homo sapiens, K562, 24 h, Table 13A
[4] = Homo sapiens, K562, 24 h, Table 13B

SMILES	pIC50 ([1]; Table 13A)	pIC50 [2, 3]	pIC50 ([2]; Table 13A, 24 hours)	pIC50 ([1]; Table 13B)	pIC50 [2, 4]
CN(c1ccc(-c2cc(F)c(-c3cn[nH]c3)c3cn[nH]c23)nn1)[C@@H]1C[C@H]2CC(F)(F)[C@@H](C1)N2 (stereo in doubt) [Compound 378, 6,6-difluoro-N-{6-[5-fluoro-4-(1H-pyrazol-4-yl)-1H-indazol-7-yl]pyridazin-3-yl}-N-methyl-8-azabicyclo[3.2.1]octan-3-amine]	> 7.00	6.00 to 7.00			
CN(c1ccc(-c2ccc(-c3cn[nH]c3)c3ncsc23)nn1)[C@@H]1C[C@H]2CC(F)(F)[C@@H](C1)N2 (stereo in doubt) [Compound 379, 6,6-difluoro-N-methyl-N-{6-[4-(1H-pyrazol-4-yl)-1,3-benzothiazol-7-yl]pyridazin-3-yl}-8-azabicyclo [3.2.1]octan-3-amine]	> 7.00	6.00 to 7.00			
CN(c1ccc(-c2ccc(-c3cn[nH]c3)c3cn[nH]c23)nn1)[C@@H]1C[C@H]2CC[C@@H](C1)N2 [Compound 104]	> 7.00	6.00 to 7.00			
CN(c1ccc(-c2ccc(-n3cccn3)c3cn[nH]c23)nn1)[C@@H]1C[C@H]2CC[C@@H](C1)N2 [Compound 105]	> 7.00	> 7.00			
CN(c1ccc(-c2ccc(-c3cn[nH]c3)c3ncsc23)nn1)C1CC(C)(C)NC(C)(C)C1 [Compound 132]	6.00 to 7.00	6.00 to 7.00			
CN(c1ccc(-c2ccc(-c3cn[nH]c3)c3cn[nH]c23)nn1)C1CC(C)(C)NC(C)(C)C1 [Compound 137]	6.00 to 7.00	6.00 to 7.00			
CN(c1ccc(-c2ccc(-c3ccc(=O)n(C)c3)c3scnc23)nn1)C1CC(C)(C)NC(C)(C)C1 [Compound 178]	< 5.00	5.00 to 6.00			
CC1(C)CC(Oc2ccc(-c3ccc(-c4cn[nH]c4)c4ncsc34)nn2)CCN1 (stereo not drawn) [Compound 182]	> 7.00	6.00 to 7.00			
c1nc2c(-c3cn[nH]c3)ccc(-c3ccc(OC4CCNCC4)nn3)c2s1 [Compound 183]	> 7.00	6.00 to 7.00			
c1nc2c(-c3cn[nH]c3)ccc(-c3ccc(O[C@@H]4C[C@H]5CC[C@@H](C4)N5)nn3)c2s1 [Compound 184]	> 7.00	6.00 to 7.00			
CC1(C)CC(Nc2ccc(-c3ccc(-c4cn[nH]c4)c4ncsc34)nn2)CC(C)(C)N1 [Compound 186]	> 7.00	6.00 to 7.00			
c1nc2c(-c3cn[nH]c3)ccc(-c3ccc(N[C@@H]4C[C@H]5CC[C@@H](C4)N5)nn3)c2s1 [Compound 202]	> 7.00	6.00 to 7.00			
CCN(c1ccc(C2=CC=C(c3cn[nH]c3)C3N=CSC23)nn1)[C@@H]1C[C@H]2CC[C@@H](C1)N2 (stereo partly drawn) [Compound 203]	> 7.00	> 7.00			
CN(c1ccc(-c2ccc(-c3cn[nH]c3)c3ncsc23)nn1)[C@H]1C[C@]2(C)CC[C@](C)(C1)N2 [Compound 204]	> 7.00	> 7.00			
[2H]C([2H])([2H])N(c1ccc(-c2ccc(-c3cn[nH]c3)c3ncsc23)nn1)[C@@H]1C[C@H]2CC[C@@H](C1)N2 [Compound 210]	> 7.00	> 7.00			
CN(c1ccc(-c2ccc(-c3cn[nH]c3)c3ncsc23)nn1)[C@@H]1C[C@H]2CC[C@@H](C1)N2 [Compound 213]	> 7.00	> 7.00			
c1nc2c(-c3cn[nH]c3)ccc(-c3ccc(N[C@@H]4C[C@H]5CCC[C@@H](C4)N5)nn3)c2s1 [Compound 215]	> 7.00	> 7.00			
Fc1cc(-c2ccc(O[C@@H]3C[C@H]4CC[C@@H](C3)N4)nn2)c2[nH]ncc2c1-c1cn[nH]c1 [Compound 216]	> 7.00	> 7.00			
CN(c1ccc(-c2ccc(-c3cn[nH]c3)c3ncsc23)nn1)[C@@H]1C[C@H]2CCC[C@@H](C1)N2 [Compound 226]	> 7.00	> 7.00			
[2H]C([2H])([2H])N(c1ccc(-c2ccc(-c3cn[nH]c3)c3ncsc23)nn1)[C@@H]1C[C@H]2CCC[C@@H](C1)N2 [Compound 227]	> 7.00	> 7.00			
CCN(c1ccc(-c2ccc(-c3cn[nH]c3)c3ncsc23)nn1)[C@@H]1C[C@H]2CCC[C@@H](C1)N2 [Compound 228]	> 7.00	> 7.00			
CN(c1ccc(-c2ccc(-c3cnn(C)c3)c3cn[nH]c23)nn1)C1CCNCC1 [Compound 242]	5.00 to 6.00	5.00 to 6.00			
CN(c1ccc(-c2cc(F)c(-c3cnn(C)c3)c3cn[nH]c23)nn1)[C@@H]1C[C@H]2CC[C@@H](C1)N2 [Compound 291]	> 7.00	> 7.00			
c1n[nH]cc1-c1ccc(-c2ccc(N[C@@H]3C[C@H]4CCC[C@@H](C3)N4)nn2)c2[nH]ncc12 [Compound 294]	6.00 to 7.00	6.00 to 7.00			
CC1(C)CC(Oc2ccc(-c3cc(F)c(-c4cn[nH]c4)c4cn[nH]c34)nn2)CC(C)(C)N1 [Compound 307]	> 7.00	6.00 to 7.00			
c1nc2c(-c3cn[nH]c3)ccc(-c3ccc(N(C4CC4)C4C[C@H]5CCC[C@@H](C4)N5)nn3)c2s1 (stereo partly drawn) [Compound 311]	6.00 to 7.00	6.00 to 7.00			
Fc1cc(-c2ccc(O[C@@H]3C[C@H]4CC[C@@H](C3)N4)nn2)c2sncc2c1-c1cn[nH]c1 [Compound 327]	> 7.00	> 7.00			

SMILES	pIC50 ([1]; Table 13A)	pIC50 [2, 3]	pIC50 ([2]; Table 13A, 24 hours)	pIC50 ([1]; Table 13B)	pIC50 [2, 4]
COc1cc(-c2ccc(-c3ccc(N(C)C4CC(C)(C)NC(C)(C)C4)nn3)c3scnc23)cnn1 [Compound 330]	> 7.00	6.00 to 7.00			
CC(C)(C)NC1CCN(c2ccc(-c3ccc(-c4cn[nH]c4)c4ncsc34)nn2)C1 (stereo not drawn) [Compound 336]	> 7.00		6.00 to 7.00		
c1nc2c(-c3cn[nH]c3)ccc(-c3ccc(N4CCC(NC5CC5)C4)nn3)c2s1 (stereo not drawn) [Compound 337]	5.00 to 6.00	6.00 to 7.00			
Fc1cc(-c2ccc(N[C@@H]3C[C@H]4CC[C@@H](C3)N4)nn2)c2scnc2c1-c1cn[nH]c1 [Compound 339]	> 7.00	> 7.00			
Cc1ncc(-c2ccc(-c3ccc(O[C@@H]4C[C@H]5CC[C@@H](C4)N5)nn3)c3scnc23)s1 [Compound 348, 7-{6-[(exo)-8-azabicyclo[3.2.1]octan-3-yloxy]pyridazin-3-yl}-4-(2-methyl-1,3-thiazol-5-yl)-1,3-benzothiazole]	> 7.00	> 7.00			
COc1cc(-c2ccc(-c3ccc(O[C@@H]4C[C@H]5CC[C@@H](C4)N5)nn3)c3scnc23)cnn1 [Compound 362]	> 7.00	> 7.00			
Fc1ccn(-c2ccc(-c3ccc(O[C@@H]4C[C@H]5CC[C@@H](C4)N5)nn3)c3scnc23)n1 [Compound 363]	> 7.00	6.00 to 7.00			
CN(c1ncc(-c2ccc(-n3cccn3)c3[nH]ncc23)nn1)[C@@H]1C[C@H]2CCC[C@@H](C1)N2 [Compound 551]	> 7.00	> 7.00			
c1cnn(-c2ccc(-c3cnc(N[C@@H]4C[C@H]5CC[C@@H](C4)N5)nn3)c3cn[nH]c23)c1 [Compound 556]	> 7.00	6.00 to 7.00			
c1cnn(-c2ccc(-c3cnc(N[C@@H]4C[C@H]5CCC[C@@H](C4)N5)nn3)c3cn[nH]c23)c1 [Compound 561]	> 7.00	6.00 to 7.00			
CC(C)(C)C1CN(c2ncc(-c3ccc(-n4cccn4)c4[nH]ncc34)nn2)CCN1 (stereo not drawn) [Compound 572]	> 7.00	6.00 to 7.00			
CN(c1ncc(-c2ccc(-n3cncn3)c3[nH]ncc23)nn1)[C@@H]1C[C@H]2CCC[C@@H](C1)N2 [Compound 574]	> 7.00	6.00 to 7.00			
CN(c1ncc(-c2ccc(-n3ccnn3)c3[nH]ncc23)nn1)[C@@H]1C[C@H]2CCC[C@@H](C1)N2 [Compound 576]	> 7.00	6.00 to 7.00			
Cc1ncc(-c2ccc(-c3cnc(N(C)[C@@H]4C[C@H]5CCC[C@@H](C4)N5)nn3)c3scnc23)s1 [Compound 578]	> 7.00	6.00 to 7.00			
Cc1nc(-c2ccc(-c3cnc(N(C)[C@@H]4C[C@H]5CCC[C@@H](C4)N5)nn3)c3scnc23)cs1 [Compound 579]	6.00 to 7.00	5.00 to 6.00			
Cc1cc(-c2ccc(-c3cnc(N(C)[C@@H]4C[C@H]5CCC[C@@H](C4)N5)nn3)c3scnc23)sn1 [Compound 580]	> 7.00	6.00 to 7.00			
CC(C)(C)[C@H]1CN(c2ncc(-c3ccc(-n4cccn4)c4[nH]ncc34)nn2)CCN1 [Compound 581]	> 7.00	6.00 to 7.00			
COc1nc(-c2ccc(N(C)[C@@H]3C[C@H]4CC[C@@H](C3)N4)nn2)ccc1-c1cn[nH]c1 [Compound 906]				> 7.00	> 7.00
CN(c1ccc(-c2ccc(-c3cn[nH]c3)cn2)nn1)[C@@H]1C[C@H]2CC[C@@H](C1)N2 [Compound 915]				6.00 to 7.00	5.00 to 6.00
COc1nc(-c2ccc(OC3CC(C)(C)NC(C)(C)C3)nn2)ccc1-c1cn[nH]c1 [Compound 917]				> 7.00	6.00 to 7.00
COc1nc(-c2ccc(OC3CC(C)(C)NC(C)(C)C3)nn2)ccc1-c1cnn(C)c1 [Compound 918]				> 7.00	6.00 to 7.00
COc1nc(-c2ccc(N(C)C3CC(C)(C)NC(C)(C)C3)nn2)ccc1-c1cn[nH]c1 [Compound 919]				> 7.00	6.00 to 7.00
COc1nc(-c2ccc(N(C)C3CC(C)(C)NC(C)(C)C3)nn2)ccc1-c1cnn(C)c1 [Compound 920]				> 7.00	6.00 to 7.00
CN(c1ccc(-c2ccc(-c3cn[nH]c3)c(F)n2)nn1)[C@@H]1C[C@H]2CC[C@@H](C1)N2 [Compound 922]				> 7.00	> 7.00
CN(c1ccc(-c2ccc(-c3cn[nH]c3)c(C#N)n2)nn1)[C@@H]1C[C@H]2CC[C@@H](C1)N2 [Compound 930]				> 7.00	> 7.00
COc1nc(-c2ccc(N(C)[C@@H]3C[C@H]4CC[C@@H](C3)N4)nn2)cc(F)c1-c1cn[nH]c1 [Compound 931]				> 7.00	> 7.00
CN(c1ccc(-c2ccc(-c3cn[nH]c3)c(OC3CC3)n2)nn1)[C@@H]1C[C@H]2CC[C@@H](C1)N2 [Compound 939]				> 7.00	> 7.00
